Here are results for 5 compounds from patent US20110195900A1, “PEPTIDIC PTH RECEPTOR AGONISTS” (FERRING B.V., priority 2008, published 2011).

This assay concerns the target T1, human PTH-1 receptor (Homo sapiens, UniProt Q03431).
T1 construct: expressed in transfected cells; host or cells: HEK-293
T1 sequence (Q03431 27-593): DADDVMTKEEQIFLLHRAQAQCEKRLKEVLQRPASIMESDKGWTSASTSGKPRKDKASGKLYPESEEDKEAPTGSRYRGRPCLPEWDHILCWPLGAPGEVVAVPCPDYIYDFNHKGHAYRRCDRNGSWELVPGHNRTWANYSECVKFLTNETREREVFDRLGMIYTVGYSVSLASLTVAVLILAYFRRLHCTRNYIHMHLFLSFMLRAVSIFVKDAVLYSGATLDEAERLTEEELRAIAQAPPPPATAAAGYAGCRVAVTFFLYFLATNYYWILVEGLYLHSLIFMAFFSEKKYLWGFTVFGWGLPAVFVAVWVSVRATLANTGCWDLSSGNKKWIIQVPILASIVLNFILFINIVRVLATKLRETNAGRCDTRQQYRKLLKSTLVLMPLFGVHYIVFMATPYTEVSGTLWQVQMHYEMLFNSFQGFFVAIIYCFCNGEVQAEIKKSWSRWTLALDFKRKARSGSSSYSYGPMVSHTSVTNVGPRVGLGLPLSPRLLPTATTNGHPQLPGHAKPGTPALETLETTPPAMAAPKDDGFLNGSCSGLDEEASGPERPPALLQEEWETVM
As to the kind of experiment: Reporter gene assay (CRE-luciferase) for agonist activity in transiently transfected HEK-293 cells. Format: cell-based. The following applies: for hPTHR-2/hPTHR-1: Table 3, ratio of EC50 values, selectivity for hPTH-1 receptor over hPTH-2 receptor. How it is done: Agonist activity of compounds on the human PTH-1 receptor was determined in a reporter gene assay by transiently transfecting HEK-293 cells with plasmids encoding human PTH-1 receptor under control of the SV40 promoter and a luciferase reporter gene under control of cAMP responsive elements (CRE). See Himmler et al, J. Recept. Res. 13 (1993) 79-94, for further guidance on this assay. Transfected cells were exposed to serial dilutions of compounds for 4-5 hours followed by lysis of cells, determination of luciferase activity, and determination of compound efficacies and EC50 values through non-linear regression.
PTH (1-34) was used as an internal control in each experiment and compounds were tested in at least three independent experiments. To determine selectivity, compounds were tested in luciferase-based transcriptional reporter gene assays expressing the human PTH-2 receptor.
A general note: In a reporter assay the amount or activity of a reporter protein is the signal.

As a reminder, the EC50 is the midpoint of the concentration-response curve. A higher EC50 goes with lower potency in that assay.

Non-standard residues stand in square brackets, D forms with d. Residues, ends and D or L forms follow the SMILES beside them. 1Nal = N[C@@H](Cc1cccc2ccccc12)C(=O)O; β3hI = CC[C@H](C)[C@H](N)CC(=O)O; Nle = CCCC[C@H](N)C(=O)O; Aib = CC(C)(N)C(=O)O

As for `CCCC[C@H](NC(=O)[C@H](CC(C)C)NC(=O)[C@H](CCC(N)=O)NC(=O)[C@@H](NC(=O)[C@H](CCC(=O)O)NC(=O)[C@H](CO)NC(=O)[C@@H](NC(=O)[C@@H](N)CO)C(C)C)[C@@H](C)CC)C(=O)N[C@@H](Cc1c[nH]cn1)C(=O)N[C@@H](CC(N)=O)C(=O)N[C@@H](CC(C)C)C(=O)NCC(=O)N[C@@H](CCCCN)C(=O)N[C@@H](Cc1c[nH]cn1)C(=O)N[C@@H](CC(C)C)C(=O)N[C@@H](CC(N)=O)C(=O)N[C@@H](CO)C(=O)N[C@H](CC(=O)N[C@@H](CCC(=O)O)C(=O)N[C@@H](CCCNC(=N)N)C(=O)N[C@H](C(=O)N[C@@H](CCC(=O)O)C(=O)N[C@@H](Cc1cccc2ccccc12)C(=O)N[C@@H](CC(C)C)C(=O)N[C@@H](CCCNC(=N)N)C(=O)N[C@@H](CCCCN)C(=O)N[C@@H](CC(C)C)C(=O)N[C@@H](CC(C)C)C(=O)N[C@@H](CCC(N)=O)C(=O)N[C@@H](CC(=O)O)C(=O)N[C@H](C(=O)O)C(C)C)C(C)C)[C@@H](C)CC` [SEQ ID NO: 10, [Nle^8, β-hIle^18,1-Nal^23, Leu^27] hPTH (1-31)-OH] (H-SVSEIQL[Nle]HNLGKHLNS[β3hI]ERVE[1Nal]LRKLLQDV-OH), the EC50 was determined as 0.09 nM and the hPTHR-2/hPTHR-1 is given as 811.
The corresponding values for `CCCC[C@H](NC(=O)[C@H](CC(C)C)NC(=O)[C@H](CCC(N)=O)NC(=O)[C@@H](NC(=O)[C@H](CCC(=O)O)NC(=O)[C@H](CO)NC(=O)[C@@H](NC(=O)[C@@H](N)CO)C(C)C)[C@@H](C)CC)C(=O)N[C@@H](Cc1c[nH]cn1)C(=O)N[C@@H](CC(N)=O)C(=O)N[C@@H](CC(C)C)C(=O)NC(C)(C)C(=O)NC(C)(C)C(=O)N[C@@H](Cc1c[nH]cn1)C(=O)N[C@@H](CC(C)C)C(=O)N[C@@H](CC(N)=O)C(=O)N[C@@H](CO)C(=O)N[C@H](CC(=O)N[C@@H](CCC(=O)O)C(=O)N[C@@H](CCCNC(=N)N)C(=O)N[C@H](C(=O)N[C@@H](CCC(=O)O)C(=O)N[C@@H](Cc1cccc2ccccc12)C(=O)N[C@@H](CC(C)C)C(=O)N[C@@H](CCCNC(=N)N)C(=O)N[C@@H](CCCCN)C(=O)N[C@@H](CC(C)C)C(=O)N[C@@H](CC(C)C)C(=O)N[C@@H](CCC(N)=O)C(=O)N[C@@H](CC(=O)O)C(=O)N[C@H](C(=O)N[C@@H](Cc1c[nH]cn1)C(=O)N[C@@H](CC(N)=O)C(=O)N[C@@H](Cc1ccccc1)C(N)=O)C(C)C)C(C)C)[C@@H](C)CC` [SEQ ID NO: 31, [Nle^8, Aib^12,13, β-hIle^18,1-Nal^23, Leu^27] hPTH (1-34)-NH2] (H-SVSEIQL[Nle]HNL[Aib][Aib]HLNS[β3hI]ERVE[1Nal]LRKLLQDVHNF-NH2; N-terminus assumed) are 0.25 nM and 138.
In the case of `CCCC[C@H](NC(=O)[C@H](CC(C)C)NC(=O)[C@H](CCC(N)=O)NC(=O)[C@@H](NC(=O)[C@H](CCC(=O)O)NC(=O)[C@H](CO)NC(=O)[C@@H](NC(=O)C(C)(C)N)C(C)C)[C@@H](C)CC)C(=O)N[C@@H](Cc1c[nH]cn1)C(=O)N[C@@H](CCC(=O)O)C(=O)N[C@@H](CC(C)C)C(=O)NCC(=O)N[C@@H](CCCCN)C(=O)N[C@@H](Cc1c[nH]cn1)C(=O)N[C@@H](CC(C)C)C(=O)N[C@@H](CCCCN)C(=O)N[C@@H](CO)C(=O)N[C@H](CC(=O)N[C@@H](CCC(=O)O)C(=O)N[C@@H](CCCNC(=N)N)C(=O)N[C@H](C(=O)N[C@@H](CCC(=O)O)C(=O)N[C@@H](Cc1cccc2ccccc12)C(=O)N[C@@H](CC(C)C)C(=O)N[C@@H](CCCNC(=N)N)C(=O)N[C@@H](CCCCN)C(=O)N[C@@H](CC(C)C)C(=O)N[C@@H](CC(C)C)C(=O)N[C@@H](CCC(N)=O)C(=O)N[C@@H](CCC(=O)O)C(=O)N[C@H](C(=O)N[C@@H](Cc1c[nH]cn1)C(=O)N[C@@H](CCC(=O)O)C(=O)N[C@@H](CCCCN)C(N)=O)C(C)C)C(C)C)[C@@H](C)CC` [SEQ ID NO: 50, [Aib^1, Nle^8, Glu^10, Lys^16, β-hIle^18,1-Nal^23, Leu^27, Glu^30, Glu^33, Lys^34] hPTH(1-34)-NH2] (H-[Aib]VSEIQL[Nle]HELGKHLKS[β3hI]ERVE[1Nal]LRKLLQEVHEK-NH2; N-terminus assumed), the EC50 was 0.04 nM and the hPTHR-2/hPTHR-1 worked out at 22.
The corresponding values for `CCCC[C@H](NC(=O)[C@H](CC(C)C)NC(=O)[C@H](CCC(N)=O)NC(=O)[C@@H](NC(=O)[C@H](CCC(=O)O)NC(=O)[C@H](CO)NC(=O)[C@@H](NC(=O)[C@@H](N)CO)C(C)C)[C@@H](C)CC)C(=O)N[C@@H](Cc1c[nH]cn1)C(=O)N[C@@H](CC(N)=O)C(=O)N[C@@H](CC(C)C)C(=O)NCC(=O)N[C@@H](CCCCN)C(=O)N[C@@H](Cc1c[nH]cn1)C(=O)N[C@@H](CC(C)C)C(=O)N[C@@H](CC(N)=O)C(=O)N[C@@H](CO)C(=O)N[C@H](CC(=O)N[C@@H](CCC(=O)O)C(=O)N[C@@H](CCCNC(=N)N)C(=O)N[C@H](C(=O)N[C@@H](CCC(=O)O)C(=O)N[C@@H](Cc1cccc2ccccc12)C(=O)N[C@@H](CC(C)C)C(=O)N[C@@H](CCCNC(=N)N)C(=O)N[C@@H](CCCCN)C(=O)N[C@@H](CC(C)C)C(=O)N[C@@H](CC(C)C)C(=O)N[C@@H](CCC(N)=O)C(=O)N[C@@H](CC(=O)O)C(=O)N[C@H](C(=O)N[C@@H](Cc1c[nH]cn1)C(=O)N[C@@H](CC(N)=O)C(=O)N[C@@H](Cc1ccccc1)C(=O)O)C(C)C)C(C)C)[C@@H](C)CC` [SEQ ID NO: 9, [Nle^8, β-hIle^18,1-Nal^23, Leu^27] hPTH (1-34)-OH] (H-SVSEIQL[Nle]HNLGKHLNS[β3hI]ERVE[1Nal]LRKLLQDVHNF-OH; N-terminus assumed) are 0.14 nM and 158.
With `CCCC[C@H](NC(=O)[C@H](CC(C)C)NC(=O)[C@H](CCC(N)=O)NC(=O)[C@@H](NC(=O)[C@H](CCC(=O)O)NC(=O)[C@H](CO)NC(=O)[C@@H](NC(=O)[C@@H](N)CO)C(C)C)[C@@H](C)CC)C(=O)N[C@@H](Cc1c[nH]cn1)C(=O)N[C@@H](CC(N)=O)C(=O)N[C@@H](CC(C)C)C(=O)NCC(=O)N[C@@H](CCCCN)C(=O)N[C@@H](Cc1c[nH]cn1)C(=O)N[C@@H](CC(C)C)C(=O)N[C@@H](CO)C(=O)N[C@@H](CO)C(=O)N[C@H](CC(=O)N[C@@H](CCC(=O)O)C(=O)N[C@@H](CCCNC(=N)N)C(=O)N[C@H](C(=O)N[C@@H](CCC(=O)O)C(=O)N[C@@H](Cc1cccc2ccccc12)C(=O)N[C@@H](CC(C)C)C(=O)N[C@@H](CCCNC(=N)N)C(=O)N[C@@H](CCCCN)C(=O)N[C@@H](CC(C)C)C(=O)N[C@@H](CC(C)C)C(=O)N[C@@H](CCC(N)=O)C(=O)N[C@@H](CC(=O)O)C(=O)N[C@H](C(=O)N[C@@H](Cc1c[nH]cn1)C(=O)N[C@@H](CC(N)=O)C(=O)N[C@@H](Cc1ccccc1)C(N)=O)C(C)C)C(C)C)[C@@H](C)CC` [SEQ ID NO: 22, [Nle^8, Ser^16, β-hIle^18,1-Nal^23, Leu^27] hPTH (1-34)-NH2] (H-SVSEIQL[Nle]HNLGKHLSS[β3hI]ERVE[1Nal]LRKLLQDVHNF-NH2), the half-maximal effective concentration (EC50) worked out at 0.19 nM and the hPTHR-2/hPTHR-1 stood at 101.
